In brackets after ≈: the same amount, converted by molar mass. Read-outs that look alike come from different tables or passages of the source.
Experiments:
[1] = system: P. falciparum strain TM90C2A; experiment: labeled hypoxanthine susceptibility assay, P. falciparum TM90C2A; assay type: cell-based, Plasmodium falciparum; conditions: for CSI (C2A/W2): ratio of IC90 C2A to IC90 W2
Experimental: (§1) The in vitro activities of quinoline methanols against P. falciparum strains W2, D6, TM91C235, and TM90C2A were evaluated using the traditional labeled hypoxanthine assay of Desjardins et al as modified by Milhous et al. These four P. falciparum strains were selected since they have various levels of resistance to conventional anti-malarials.

P. falciparum strain W2 = experiment: labeled hypoxanthine susceptibility assay, P. falciparum W2; assay type: cell-based, Plasmodium falciparum; conditions: for IC90: Plasmodium falciparum
Experimental: as §1

P. falciparum strain D6 = experiment: labeled hypoxanthine susceptibility assay, P. falciparum D6; assay type: cell-based, Plasmodium falciparum; conditions: for IC90: Plasmodium falciparum
Experimental: as §1

[2] = system: P. falciparum strain TM91C235; experiment: labeled hypoxanthine susceptibility assay, P. falciparum TM91C235; assay type: cell-based, Plasmodium falciparum; conditions: for IC90: Plasmodium falciparum, read-out: PF C235 IC90
Experimental: as §1

[3] = system: rodent macrophage (RAW) cell line; experiment: cells; conditions: read-out: Macrophage IC50
Experimental: General cytotoxicity was assessed by first determining LC50 's against a rodent macrophage (RAW) cell line using the 3-(4,5-dimethylthiazole-2-yl)-2,5-diphenyltetrazolium bromide (MTT) assay as described in one of our earlier studies. This screen was conducted to identify compounds that may require de-selection due to generalized toxicity. […] In vitro neurocytotoxicity was assessed by determining LC50s against primary mouse neurons using the MTT assay as described previously. Inhibition of the A2A and A1 receptors was determined at 200 nM in duplicate by Caliper Biosciences (Hanover, Maryland).

[4] = Plasmodium falciparum, TM90C2A, read-out: IC90 PfC2A
[5] = D6, read-out: PF D6 IC90, P. falciparum D6
[6] = Plasmodium falciparum, TM90C2A, read-out: PF C2A IC90

Structure (SMILES) | IC90 [1, 4] | IC90 (P. falciparum strain W2; W2, read-out: PF W2 IC90) | IC90 (P. falciparum strain D6; [5]) | IC90 [2] | IC90 [1, 6] | CSI (C2A/W2) [1] | IC50 ([3]; Mus musculus, Macrophage) | further results
CCCCN(CCCC)CC(O)c1cc(C(F)(F)F)nc2c(C(F)(F)F)cccc12 (racemic) [WR176990] | 44 nM | – | – | – | – | – | – | –
CCCNCC(O)c1cc(C(F)(F)F)nc2c(C(F)(F)F)cccc12 (racemic) [WR183544] | 40 nM | – | – | – | – | – | – | –
OC(CNC1CCCCC1)c1cc(C(F)(F)F)nc2c(C(F)(F)F)cccc12 (racemic) [WR308248] | 66 nM | – | – | – | – | – | – | –
OC(CNCCC1=CCCCC1)c1cc(C(F)(F)F)nc2c(C(F)(F)F)cccc12 (racemic) [WR308249] | 160 nM | – | – | – | – | – | – | –
OC(CNCCc1ccccc1)c1cc(C(F)(F)F)nc2c(C(F)(F)F)cccc12 (racemic) [WR308253] | 99 nM | – | – | – | – | – | – | –
CCN(CC)CC(O)c1cc(C(F)(F)F)nc2c(C(F)(F)F)cccc12 (racemic) [WR308254] | 176 nM | – | – | – | – | – | – | –
CC(C)N(CC(O)c1cc(C(F)(F)F)nc2c(C(F)(F)F)cccc12)C(C)C (racemic) [WR308277] | 75 nM | – | – | – | – | – | – | –
Cc1ccc(CNCC(O)c2cc(C(F)(F)F)nc3c(C(F)(F)F)cccc23)cc1 (racemic) [WR308375] | 103 nM | – | – | – | – | – | – | –
CCCCN(CCC#N)CC(O)c1cc(C(F)(F)F)nc2c(C(F)(F)F)cccc12 (racemic) [WR308485] | 204 nM | – | – | – | – | – | – | –
N#CCCN(CC(O)c1cc(C(F)(F)F)nc2c(C(F)(F)F)cccc12)C1CCCCC1 (racemic) [WR308486] | 144 nM | – | – | – | – | – | – | –
OC(CNc1nc2ccccc2[nH]1)c1cc(C(F)(F)F)nc2c(C(F)(F)F)cccc12 (racemic) [WR308491] | 190 nM | – | – | – | – | – | – | –
CC1CCN(CC(C)(C)NCC(O)c2cc(C(F)(F)F)nc3c(C(F)(F)F)cccc23)CC1 (racemic) [WR308592] | 137 nM | – | – | – | – | – | – | –
CCCCN(CCCC)CC(O)c1cc(C(F)(F)F)nc2c(C(F)(F)F)cccc12 (racemic) [compound 176990] | – | 0.00239 µg/mL (≈ 0.00548 µM) | 0.011 µg/mL (≈ 0.0252 µM) | 0.027 µg/mL (≈ 0.0619 µM) | 0.019 µg/mL | 7.9 | 46000 nM | –
CCCCNCC(O)c1cc(C(F)(F)F)nc2c(C(F)(F)F)cccc12 (racemic) [compound 177000] | – | 0.00169 µg/mL (≈ 0.00444 µM) | 0.00658 µg/mL (≈ 0.0173 µM) | 0.00891 µg/mL (≈ 0.0234 µM) | 0.0123 µg/mL | 7.3 | 7800 nM | –
CCCNCC(O)c1cc(C(F)(F)F)nc2c(C(F)(F)F)cccc12 (racemic) [compound 183544] | – | 0.0011 µg/mL (≈ 0.003 µM) | 0.0067 µg/mL (≈ 0.0183 µM) | 0.014 µg/mL (≈ 0.0382 µM) | 0.016 µg/mL | 14.5 | – | –
OC(CNC1CCCCC1)c1cc(C(F)(F)F)nc2c(C(F)(F)F)cccc12 (racemic) [compound 308248] | – | 0.00249 µg/mL (≈ 0.00613 µM) | 0.00957 µg/mL (≈ 0.0235 µM) | 0.0144 µg/mL (≈ 0.0353 µM) | 0.027 µg/mL | 10.8 | 19800 nM | –
OC(CNCCC1=CCCCC1)c1cc(C(F)(F)F)nc2c(C(F)(F)F)cccc12 (racemic) [compound 308249] | – | 0.00885 µg/mL (≈ 0.0205 µM) | 0.033 µg/mL (≈ 0.0762 µM) | 0.0392 µg/mL (≈ 0.0906 µM) | 0.0693 µg/mL | 7.8 | 27000 nM | –
OC(CNCCc1ccccc1)c1cc(C(F)(F)F)nc2c(C(F)(F)F)cccc12 (racemic) [compound 308253] | – | 0.00472 µg/mL (≈ 0.011 µM) | 0.0191 µg/mL (≈ 0.0446 µM) | 0.0229 µg/mL (≈ 0.0536 µM) | 0.0425 µg/mL | 9.0 | 22500 nM | –
CCN(CC)CC(O)c1cc(C(F)(F)F)nc2c(C(F)(F)F)cccc12 (racemic) [compound 308254] | – | 0.00901 µg/mL (≈ 0.0237 µM) | 0.0264 µg/mL (≈ 0.0694 µM) | 0.0365 µg/mL (≈ 0.096 µM) | 0.0669 µg/mL | 7.4 | 5500 nM | –
OC(CN1CCCC1)c1cc(C(F)(F)F)nc2c(C(F)(F)F)cccc12 (racemic) [compound 308268] | – | – | – | – | – | 7.7 | – | PF W2 IC90 (P. falciparum strain W2; P. falciparum W2): 0.01205 µg/mL; PF D6 IC90 (P. falciparum strain D6; P. falciparum D6): 0.04702 µg/mL; PF C235 IC90 ([2]; P. falciparum TM91C235): 0.04519 µg/mL; PF C2A IC90 ([1]; P. falciparum TM90C2A): 0.09268 µg/mL; IC90 ([1]; calculated from ng/ml IC90 with MW in Column C, read-out: Pf C2A IC90 nM values calculated using MW in Column C): 245 nM; IC50 ([3]; RAW macrophages, range in brackets): 8500 nM
CC(C)N(CC(O)c1cc(C(F)(F)F)nc2c(C(F)(F)F)cccc12)C(C)C (racemic) [compound 308277] | – | 0.00452 µg/mL (≈ 0.0111 µM) | 0.0195 µg/mL (≈ 0.0477 µM) | 0.0209 µg/mL (≈ 0.0512 µM) | 0.0305 µg/mL | 6.7 | 81200 nM | –
Cc1ccc(CNCC(O)c2cc(C(F)(F)F)nc3c(C(F)(F)F)cccc23)cc1 (racemic) [compound 308375] | – | 0.00526 µg/mL (≈ 0.0123 µM) | 0.0392 µg/mL (≈ 0.0916 µM) | 0.0443 µg/mL (≈ 0.103 µM) | 0.044 µg/mL | 8.4 | > 100000 nM | –
CCCCN(CCC#N)CC(O)c1cc(C(F)(F)F)nc2c(C(F)(F)F)cccc12 (racemic) [compound 308485] | – | 0.00934 µg/mL (≈ 0.0216 µM) | 0.0604 µg/mL (≈ 0.139 µM) | 0.059 µg/mL (≈ 0.136 µM) | 0.0883 µg/mL | 9.5 | 46600 nM | –
N#CCCN(CC(O)c1cc(C(F)(F)F)nc2c(C(F)(F)F)cccc12)C1CCCCC1 (racemic) [compound 308486] | – | 0.00549 µg/mL (≈ 0.0119 µM) | 0.0312 µg/mL (≈ 0.0678 µM) | 0.0413 µg/mL (≈ 0.0899 µM) | 0.0662 µg/mL | 12.1 | 18700 nM | –
OC(CNc1nc2ccccc2[nH]1)c1cc(C(F)(F)F)nc2c(C(F)(F)F)cccc12 (racemic) [compound 308491] | – | 0.0219 µg/mL (≈ 0.0498 µM) | 0.0482 µg/mL (≈ 0.11 µM) | 0.0716 µg/mL (≈ 0.163 µM) | 0.0835 µg/mL | 3.8 | 15400 nM | –
CC1CCN(CC(C)(C)NCC(O)c2cc(C(F)(F)F)nc3c(C(F)(F)F)cccc23)CC1 (racemic) [compound 308592] | – | 0.00445 µg/mL (≈ 0.00932 µM) | 0.0284 µg/mL (≈ 0.0594 µM) | 0.0625 µg/mL (≈ 0.131 µM) | 0.0653 µg/mL | 14.7 | 38000 nM | –
OC(c1cc(C(F)(F)F)nc2c(C(F)(F)F)cccc12)C1CCCCN1 (stereo not shown) [142490 (MQ)] | – | – | – | – | 0.071 µg/mL | 6.5 | 7270 nM | IC90 (P. falciparum strain W2; P. falciparum W2, read-out: PF W2 IC90): 0.011 µg/mL (≈ 0.0291 µM); IC90 (P. falciparum strain D6; P. falciparum D6, read-out: PF D6 IC90): 0.025 µg/mL (≈ 0.0661 µM); IC90 ([2]; P. falciparum TM91C235): 0.064 µg/mL (≈ 0.169 µM); IC90 ([1]; Plasmodium falciparum, TM90C2A, read-out: Pf C2A IC90 nM values calculated using MW in Column C): 171 nM

Reference: article PMC2833169, “Anti-malarial activity of a non-piperidine library of next-generation quinoline methanols” (Malaria Journal, 2010)
